Laboratory results published in patent publication US20260008758A1, “LINEAR DIPEPTIDYL PEPTIDASE 1 INHIBITORS AND USES THEREOF” (Insmed Incorporated, priority 2024, published 2026).

Assays:
human DPP1 enzyme = human DPP1 enzyme (Homo sapiens (Human), UniProt P53634); experiment: Human DPP1 enzyme single-point percent inhibition testing (HL-60 lysate, H-Gly-Arg-AMC substrate); assay type: biochemical; details: read-out: human DPP1 enzyme % inhibition @ 10 nM, 10 nM compound, 400 μM H-Gly-Arg-AMC, 10 min pre-incubation at 37° C.
Chain of human DPP1 enzyme (P53634 25-134): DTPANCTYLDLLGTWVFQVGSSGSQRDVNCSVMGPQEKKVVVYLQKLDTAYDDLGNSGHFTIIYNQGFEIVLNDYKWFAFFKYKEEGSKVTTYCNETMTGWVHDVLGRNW
Chain of human DPP1 enzyme (P53634 231-394): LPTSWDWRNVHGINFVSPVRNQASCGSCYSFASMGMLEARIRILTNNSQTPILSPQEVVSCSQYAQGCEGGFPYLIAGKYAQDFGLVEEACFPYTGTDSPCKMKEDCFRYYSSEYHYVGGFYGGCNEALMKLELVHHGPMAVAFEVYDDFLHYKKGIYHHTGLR
Chain of human DPP1 enzyme (P53634 395-463): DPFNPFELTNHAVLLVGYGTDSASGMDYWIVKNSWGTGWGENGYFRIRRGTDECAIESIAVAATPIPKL
Description: A crude lysate of HL-60 cells (ATCC; Manassas, VA) was used as a source of human DPP1 enzyme in the assay. Lysate was prepared in 1% Triton X-100 in PBS at a concentration of 20,000 live cells per […] of lysis buffer and was centrifuged at 16,000 rcf for 10 minutes at 4° C., after which supernatant was collected and flash-frozen in liquid nitrogen. Test articles were applied to human DPP1 enzyme in Assay Buffer (25 mM MES pH 6.0, 50 mM NaCl, 5 mM DTT) in a total reaction volume of 125 μL. 25 μL of compound diluted to 50 nM in Assay Buffer plus 5% DMSO was first added to 50 μL of HL-60 lysate diluted to contain a DPP1 enzyme concentration of roughly 1 ng/μL and allowed to pre-incubate for 10 minutes at 37° C. after which 50 μL of 1000 μM H-Gly-Arg-AMC substrate (Bachem; St. Torrance, CA) was added, giving final compound concentration of 10 nM, a final substrate concentration of 400 μM and a final DMSO concentration of 1%. Substrate cleavage was measured for 90 minutes at 37° C., with fluorescence at Excitation/Emission 350/450 nm measured every 5 minutes. DPP1 concentration was interpolated based on its activity relative to a standard curve of activated human recombinant DPP1 enzyme. Percent inhibition at 10 nM was calculated for each test article based on remaining DPP1 activity compared to enzyme activity in wells that received only vehicle control.

DPP1 in HL-60 cells = DPP1 in HL-60 cells (Homo sapiens (Human), UniProt P53634); experiment: DPP1 cell single-point percent inhibition testing (HL-60 cells, H-Gly-Phe-AFC substrate); assay type: cell-based; details: read-out: DPP1 cell % inhibition @ 5 nM, 5 nM compound, 100 μM H-Gly-Phe-AFC, 60 min pre-incubation at 37° C.
Chain of DPP1 in HL-60 cells (P53634 25-134): as the sequence (P53634 25-134) above
Chain of DPP1 in HL-60 cells (P53634 231-394): as the sequence (P53634 231-394) above
Chain of DPP1 in HL-60 cells (P53634 395-463): as the sequence (P53634 395-463) above
Description: HL-60 cells (ATCC; Manassas, VA) were maintained in RPMI-1640 supplemented with 20% heat-inactivated FBS and 1× Antibiotic Antimycotic (Cytiva; Marlborough, MA). Media was changed every three to four days and cells were not allowed to exceed 1×10^6 cells per mL. Prior to assay, cells were collected by centrifugation at 500 rcf for 3 minutes, resuspended in RPMI (with no additional supplements) and counted. Cells were diluted in RPMI to a concentration of 5×10^5 live cells per mL and transferred to black 96-well plates for assay, 60 μL per well. Test articles were diluted to 25 nM in RPMI plus 0.5% DMSO, and 20 μL was added to each assay well. Compound was allowed to pre-incubate with cells with gentle shaking at 100 rpm for 60 minutes at 37° C. in a cell culture incubator maintained at 5% CO2, after which 20 μL of 500 μM H-Gly-Phe-AFC cell-permeable substrate (MP Biomedicals; Solon, OH) in RPMI was added to each well, giving final compound concentration of 5 nM, a final substrate concentration of 100 μM and a final DMSO concentration of 0.1%. Plates were returned to the incubator with shaking at 100 rpm for 30 minutes, after which fluorescence was measured at Excitation/Emission 400/505 nm. Percent Inhibition was calculated from RFU values by first subtracting background values (wells in which RPMI was substituted for cells) from each well, and then subtracting background-subtracted RFU derived from wells that received a final concentration of 10 μM brensocatib. This value represents the non-specific substrate cleavage from the HL-60 cells, and the remaining RFU should theoretically be solely the contribution of DPP1 enzyme activity. The final percent inhibition value was calculated for each test article based on remaining RFU compared to RFU from wells that received only vehicle control.

Structure (SMILES) | inhibition at 0.01 µM (human DPP1 enzyme) | inhibition at 0.005 µM (DPP1 in HL-60 cells)
Cc1cn2cc(-c3ccc(C[C@@H](C#N)NC(=O)[C@@H](O)CN(C)C)c(F)c3)cc2c(C)n1 [Compound 358] | ≤ 40% | ≤ 76.5%
CN(C)C[C@H](O)C(=O)NC(C#N)Cc1cc2c(cc1F)-c1ccc3oc(=O)n(C)c3c1CO2 (stereo partly drawn) [Compound 341] | ≤ 40% | ≤ 76.5%
CO[C@@H](CN(C)C)C(=O)NC(C#N)Cc1cc2c(cc1F)-c1cc(C3COC3)c(F)cc1CO2 (stereo partly drawn) [Compound 295] | 40 to 66.7% | ≤ 76.5%
CO[C@@H](CN(C)C)C(=O)N[C@H](C#N)Cc1ccc(-c2ccc3oc(=O)n(CCN4CCOCC4)c3c2)cc1F [Compound 322] | 40 to 66.7% | ≤ 76.5%
CN(C)C[C@](C)(O)C(=O)N[C@H](C#N)Cc1ccc(-c2ccc3nnn(C)c3c2)cc1 [Compound 413] | 40 to 66.7% | 76.5 to 93.9%
CN(C)CCn1c(=O)oc2ccc(-c3ccc(C[C@@H](C#N)NC(=O)[C@@H](O)CN(C)C)cc3)cc21 [Compound 344] | 40 to 66.7% | ≤ 76.5%
CO[C@@H](CN(C)C)C(=O)N[C@H](C#N)Cc1ccc(-c2ccc3cnn(C4CCN(C)CC4)c3c2)cc1F [Compound 320] | ≥ 66.7% | ≤ 76.5%
CN(C)C[C@](C)(O)C(=O)N[C@H](C#N)Cc1ccc(-c2ccc3oc(=O)n(C)c3c2)cc1 [Compound 395] | ≥ 66.7% | 76.5 to 93.9%
CN(C)C[C@](C)(O)C(=O)N[C@H](C#N)Cc1ccc(-c2ccc3c(c2)C2(CCCN(C)C2)C(=O)N3C)cc1 (stereo partly drawn) [Compound 385] | ≥ 66.7% | ≥ 93.9%
CO[C@@H](CN(C)C)C(=O)N[C@H](C#N)Cc1ccc(-c2ccc3cnn(C)c3c2)cc1 [Compound 328] | ≤ 40% | ≤ 76.5%
CN(C)C[C@H](O)C(=O)N[C@H](C#N)Cc1ccc(-c2ccc3c(c2)C2(CCN(C)C2)OC3=O)cc1 (stereo partly drawn) [Compound 348] | 40 to 66.7% | ≤ 76.5%
CO[C@@H](CN(C)C)C(=O)N[C@H](C#N)Cc1ccc(-c2ccc(CN3CCN(C)CC3)cc2)cc1F [Compound 323] | ≤ 40% | 76.5 to 93.9%
CN(C)C[C@](C)(O)C(=O)N[C@H](C#N)Cc1ccc(-c2ccc(S(=O)(=O)N3CCC3)cc2)cc1 [Compound 415] | ≤ 40% | ≤ 76.5%
CN(C)C[C@](C)(O)C(=O)NC(C#N)Cc1cc2c(cc1F)-c1cc3c(cc1CO2)oc(=O)n3C (stereo partly drawn) [Compound 381] | 40 to 66.7% | 76.5 to 93.9%
CN(C)C[C@H](O)C(=O)N[C@H](C#N)Cc1ccc(-c2ccc3c(c2)C2(CC3)CCN(C)CC2)cc1F [Compound 355] | ≥ 66.7% | ≤ 76.5%
CO[C@@H](CN(C)C)C(=O)NC(C#N)Cc1cc2c(cc1F)-c1ccc3oc(=O)n(C)c3c1CO2 (stereo partly drawn) [Compound 299] | ≤ 40% | ≤ 76.5%
CO[C@@H](CN(C)C)C(=O)N[C@H](C#N)Cc1ccc(-c2ccc(S(=O)(=O)N3CCC3)cc2)cc1 [Compound 331] | ≤ 40% | ≤ 76.5%
CN(C)C[C@](C)(O)C(=O)N[C@H](C#N)Cc1ccc(-c2ccc3c(c2)C2(CCN(C)C2)OC3=O)cc1 (stereo partly drawn) [Compound 390] | ≥ 66.7% | ≤ 76.5%
CN(C)C[C@H](O)C(=O)NC(C#N)Cc1cc2c(cc1F)-c1cc3c(cc1CO2)oc(=O)n3C (stereo partly drawn) [Compound 339] | ≤ 40% | ≤ 76.5%
CN(C)C[C@](C)(O)C(=O)N[C@H](C#N)Cc1ccc(-c2ccc(CN3CCN(C)CC3)cc2)cc1 [Compound 394] | ≤ 40% | 76.5 to 93.9%
CN(C)C[C@](C)(O)C(=O)N[C@H](C#N)Cc1ccc(-c2ccc3oc(=O)n(CCN4CCOCC4)c3c2)cc1F [Compound 406] | ≥ 66.7% | 76.5 to 93.9%
